Results reported in article PMC7345083, “Vancomycin-Lipopeptide Conjugates with High Antimicrobial Activity on Vancomycin-Resistant Enterococci” (Pharmaceuticals, 2020).
Values after ≈ are worked out from the molar mass of the structure shown.

Test system: Enterococcus faecium UL602570 (vanA, clinical isolate)
Assay type: cell-based
Settings: UL602570 (vanA, clinical isolate, 18 h)
Protocol: The minimum inhibitory concentration (MIC) was determined by microdilution following the EUCAST and CLSI guidelines via the broth microdilution assay on a 96-well plate. Substances were dissolved in saline solution (0.9%) at a concentration equimolar to 1.28 mg/mL vancomycin. With an increasing hydrophobicity, some substances had to be pre-dissolved in DMSO. The final concentration of DMSO remained below 1.5% and was compared to the DMSO control (no antimicrobial effect was observed up to the highest concentration tested (10%)). All substances were serially diluted on the 96-well plate using Mueller-Hinton-Broth II (cation adjusted). Vancomycin was always used as a control. For bacterial loading, an overnight culture of the referring strain was taken and adjusted to a turbidity corresponding to 10^8 cfu/mL. The bacterial suspension was further diluted to load a bacterial number of 10^6 cfu/mL on the 96-well plate and incubate it for 18 h at 35 ± 1 °C, as described before. MIC was defined as the lowest concentration without visible growth.

CCCCCCCCCC(=O)N[C@@H](CCCNC(=N)N)C(=O)N[C@@H](CCCNC(=N)N)C(=O)N[C@@H](CCCNC(=N)N)C(=O)N[C@@H](CSC1CC(=O)N(CC2CCC(C(=O)N(C)[C@H](CC(C)C)C(=O)N[C@H]3C(=O)N[C@@H](CC(N)=O)C(=O)N[C@H]4C(=O)N[C@H]5C(=O)N[C@H](C(=O)N[C@H](C(=O)O)c6cc(O)cc(O)c6-c6cc5ccc6O)[C@H](O)c5ccc(c(Cl)c5)Oc5cc4cc(c5O[C@@H]4O[C@H](CO)[C@@H](O)[C@H](O)[C@H]4O[C@H]4C[C@](C)(N)[C@H](O)[C@H](C)O4)Oc4ccc(cc4Cl)[C@H]3O)CC2)C1=O)C(N)=O (some centres unmarked) [VN-R3C-C10]
MIC median: 4.66 µg/mL (≈ 1.93 µM) | MIC range: 4.66 to 9.31 µg/mL

CCCCCCCCCCCCCC(=O)N[C@@H](CCCNC(=N)N)C(=O)N[C@@H](CCCNC(=N)N)C(=O)N[C@@H](CCCNC(=N)N)C(=O)N[C@@H](CSC1CC(=O)N(CC2CCC(C(=O)N(C)[C@H](CC(C)C)C(=O)N[C@H]3C(=O)N[C@@H](CC(N)=O)C(=O)N[C@H]4C(=O)N[C@H]5C(=O)N[C@H](C(=O)N[C@H](C(=O)O)c6cc(O)cc(O)c6-c6cc5ccc6O)[C@H](O)c5ccc(c(Cl)c5)Oc5cc4cc(c5O[C@@H]4O[C@H](CO)[C@@H](O)[C@H](O)[C@H]4O[C@H]4C[C@](C)(N)[C@H](O)[C@H](C)O4)Oc4ccc(cc4Cl)[C@H]3O)CC2)C1=O)C(N)=O (some centres unmarked) [VN-R3C-C14]
MIC median: 2.41 µg/mL (≈ 0.977 µM) | MIC range: 2.41 to 4.81 µg/mL

CCCCCCCCCC(=O)N[C@@H](CCCNC(=N)N)C(=O)N[C@@H](CCCNC(=N)N)C(=O)N[C@@H](CCCNC(=N)N)C(=O)N[C@@H](CSC1CC(=O)N(CC2CCC(C(=O)NCCNC(=O)[C@H]3NC(=O)[C@H]4NC(=O)[C@H](NC(=O)[C@@H]5NC(=O)[C@H](CC(N)=O)NC(=O)[C@H](NC(=O)[C@@H](CC(C)C)NC)[C@H](O)c6ccc(c(Cl)c6)Oc6cc5cc(c6O[C@@H]5O[C@H](CO)[C@@H](O)[C@H](O)[C@H]5O[C@H]5C[C@](C)(N)[C@H](O)[C@H](C)O5)Oc5ccc(cc5Cl)[C@H]4O)c4ccc(O)c(c4)-c4c(O)cc(O)cc43)CC2)C1=O)C(N)=O (some centres unmarked) [VC-R3C-C10]
MIC median: 4.77 µg/mL (≈ 1.94 µM) | MIC range: 4.77 to 9.53 µg/mL

CCCCCCCCCCCCCCCCCC(=O)N[C@@H](CCCNC(=N)N)C(=O)N[C@@H](CCCNC(=N)N)C(=O)N[C@@H](CCCNC(=N)N)C(=O)N[C@@H](CSC1CC(=O)N(CC2CCC(C(=O)NCCNC(=O)[C@H]3NC(=O)[C@H]4NC(=O)[C@H](NC(=O)[C@@H]5NC(=O)[C@H](CC(N)=O)NC(=O)[C@H](NC(=O)[C@@H](CC(C)C)NC)[C@H](O)c6ccc(c(Cl)c6)Oc6cc5cc(c6O[C@@H]5O[C@H](CO)[C@@H](O)[C@H](O)[C@H]5O[C@H]5C[C@](C)(N)[C@H](O)[C@H](C)O5)Oc5ccc(cc5Cl)[C@H]4O)c4ccc(O)c(c4)-c4c(O)cc(O)cc43)CC2)C1=O)C(N)=O (some centres unmarked) [VC-R3C-C18]
MIC median: 10.17 µg/mL (≈ 3.96 µM) | MIC range: 5.08 to 10.17 µg/mL

CCCCCC(=O)N[C@@H](CCCNC(=N)N)C(=O)N[C@@H](CCCNC(=N)N)C(=O)N[C@@H](CCCNC(=N)N)C(=O)N[C@@H](CSC1CC(=O)N(CC2CCC(C(=O)N(C)[C@H](CC(C)C)C(=O)N[C@H]3C(=O)N[C@@H](CC(N)=O)C(=O)N[C@H]4C(=O)N[C@H]5C(=O)N[C@H](C(=O)N[C@H](C(=O)O)c6cc(O)cc(O)c6-c6cc5ccc6O)[C@H](O)c5ccc(c(Cl)c5)Oc5cc4cc(c5O[C@@H]4O[C@H](CO)[C@@H](O)[C@H](O)[C@H]4O[C@H]4C[C@](C)(N)[C@H](O)[C@H](C)O4)Oc4ccc(cc4Cl)[C@H]3O)CC2)C1=O)C(N)=O (some centres unmarked) [VN-R3C-C6]
MIC median: 72.00 µg/mL (≈ 30.6 µM) | MIC range: 36.00 to 72.00 µg/mL

CCCCCC(=O)N[C@@H](CCCNC(=N)N)C(=O)N[C@@H](CCCNC(=N)N)C(=O)N[C@@H](CCCNC(=N)N)C(=O)N[C@@H](CSC1CC(=O)N(CC2CCC(C(=O)NCCN[C@@]3(C)C[C@H](O[C@H]4[C@H](Oc5c6cc7cc5Oc5ccc(cc5Cl)[C@@H](O)[C@@H](NC(=O)[C@@H](CC(C)C)NC)C(=O)N[C@@H](CC(N)=O)C(=O)N[C@H]7C(=O)N[C@H]5C(=O)N[C@H](C(=O)N[C@H](C(=O)O)c7cc(O)cc(O)c7-c7cc5ccc7O)[C@H](O)c5ccc(c(Cl)c5)O6)O[C@H](CO)[C@@H](O)[C@@H]4O)O[C@@H](C)[C@H]3O)CC2)C1=O)C(N)=O (some centres unmarked) [VV-R3C-C6]
MIC median: 4.63 µg/mL (≈ 1.93 µM) | MIC range: 2.31 to 9.25 µg/mL

CCCCCCCC(=O)N[C@@H](CCCNC(=N)N)C(=O)N[C@@H](CCCNC(=N)N)C(=O)N[C@@H](CCCNC(=N)N)C(=O)N[C@@H](CSC1CC(=O)N(CC2CCC(C(=O)N(C)[C@H](CC(C)C)C(=O)N[C@H]3C(=O)N[C@@H](CC(N)=O)C(=O)N[C@H]4C(=O)N[C@H]5C(=O)N[C@H](C(=O)N[C@H](C(=O)O)c6cc(O)cc(O)c6-c6cc5ccc6O)[C@H](O)c5ccc(c(Cl)c5)Oc5cc4cc(c5O[C@@H]4O[C@H](CO)[C@@H](O)[C@H](O)[C@H]4O[C@H]4C[C@](C)(N)[C@H](O)[C@H](C)O4)Oc4ccc(cc4Cl)[C@H]3O)CC2)C1=O)C(N)=O (some centres unmarked) [VN-R3C-C8]
MIC median: 18.31 µg/mL (≈ 7.68 µM) | MIC range: 9.16 to 18.31 µg/mL

CN[C@H](CC(C)C)C(=O)N[C@H]1C(=O)N[C@@H](CC(N)=O)C(=O)N[C@H]2C(=O)N[C@H]3C(=O)N[C@H](C(=O)N[C@H](C(=O)O)c4cc(O)cc(O)c4-c4cc3ccc4O)[C@H](O)c3ccc(c(Cl)c3)Oc3cc2cc(c3O[C@@H]2O[C@H](CO)[C@@H](O)[C@H](O)[C@H]2O[C@H]2C[C@](C)(NCCNC(=O)C3CCC(CN4C(=O)CC(SC[C@H](NC(=O)[C@H](CCCNC(=N)N)NC(=O)[C@H](CCCNC(=N)N)NC(=O)[C@@H](N)CCCNC(=N)N)C(N)=O)C4=O)CC3)[C@H](O)[C@H](C)O2)Oc2ccc(cc2Cl)[C@H]1O (some centres unmarked) [VV-R3C]
MIC median: 4.35 µg/mL (≈ 1.89 µM) | MIC range: 4.35 to 8.69 µg/mL

CCCCCCCCCCCCCC(=O)N[C@@H](CCCNC(=N)N)C(=O)N[C@@H](CCCNC(=N)N)C(=O)N[C@@H](CCCNC(=N)N)C(=O)N[C@@H](CSC1CC(=O)N(CC2CCC(C(=O)NCCNC(=O)[C@H]3NC(=O)[C@H]4NC(=O)[C@H](NC(=O)[C@@H]5NC(=O)[C@H](CC(N)=O)NC(=O)[C@H](NC(=O)[C@@H](CC(C)C)NC)[C@H](O)c6ccc(c(Cl)c6)Oc6cc5cc(c6O[C@@H]5O[C@H](CO)[C@@H](O)[C@H](O)[C@H]5O[C@H]5C[C@](C)(N)[C@H](O)[C@H](C)O5)Oc5ccc(cc5Cl)[C@H]4O)c4ccc(O)c(c4)-c4c(O)cc(O)cc43)CC2)C1=O)C(N)=O (some centres unmarked) [VC-R3C-C14]
MIC median: 2.45 µg/mL (≈ 0.976 µM) | MIC range: 2.45 to 4.91 µg/mL

CCCCCCCC(=O)N[C@@H](CCCNC(=N)N)C(=O)N[C@@H](CCCNC(=N)N)C(=O)N[C@@H](CCCNC(=N)N)C(=O)N[C@@H](CSC1CC(=O)N(CC2CCC(C(=O)NCCN[C@@]3(C)C[C@H](O[C@H]4[C@H](Oc5c6cc7cc5Oc5ccc(cc5Cl)[C@@H](O)[C@@H](NC(=O)[C@@H](CC(C)C)NC)C(=O)N[C@@H](CC(N)=O)C(=O)N[C@H]7C(=O)N[C@H]5C(=O)N[C@H](C(=O)N[C@H](C(=O)O)c7cc(O)cc(O)c7-c7cc5ccc7O)[C@H](O)c5ccc(c(Cl)c5)O6)O[C@H](CO)[C@@H](O)[C@@H]4O)O[C@@H](C)[C@H]3O)CC2)C1=O)C(N)=O (some centres unmarked) [VV-R3C-C8]
MIC median: 1.49 µg/mL (≈ 0.614 µM) | MIC range: 0.30 to 2.39 µg/mL
